{"source": "patent US20240400577A1", "about": "“MODULATORS OF PROTEIN KINASES” (VIBLIOME THERAPEUTICS, LLC, priority 2021, published 2024)", "assay_in_all_cases": "Kinase panel enzymatic inhibition assay (Nanosyn)", "format_in_all_cases": "biochemical", "key": {"WEE1": {"molecular_target": "T1, WEE1 (Homo sapiens, UniProt P30291)", "T1 construct": "purchased Nanosyn", "T1 sequence (P30291 whole entry)": "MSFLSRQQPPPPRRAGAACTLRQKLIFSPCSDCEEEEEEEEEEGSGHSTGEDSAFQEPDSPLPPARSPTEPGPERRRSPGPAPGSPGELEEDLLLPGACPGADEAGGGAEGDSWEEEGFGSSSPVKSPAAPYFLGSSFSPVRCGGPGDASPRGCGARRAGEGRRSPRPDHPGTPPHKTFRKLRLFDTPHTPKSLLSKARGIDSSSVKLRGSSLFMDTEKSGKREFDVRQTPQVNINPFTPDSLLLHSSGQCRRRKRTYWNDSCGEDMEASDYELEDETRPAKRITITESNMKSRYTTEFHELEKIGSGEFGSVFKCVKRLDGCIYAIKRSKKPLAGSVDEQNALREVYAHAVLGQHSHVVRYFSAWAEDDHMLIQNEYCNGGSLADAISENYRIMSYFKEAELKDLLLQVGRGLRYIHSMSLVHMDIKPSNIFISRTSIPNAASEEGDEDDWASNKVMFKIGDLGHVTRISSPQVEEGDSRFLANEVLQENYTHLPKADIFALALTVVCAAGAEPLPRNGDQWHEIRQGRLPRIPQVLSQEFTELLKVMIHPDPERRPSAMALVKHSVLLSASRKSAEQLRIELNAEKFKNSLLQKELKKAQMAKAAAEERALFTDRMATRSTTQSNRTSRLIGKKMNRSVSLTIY", "conditions": "ATP at Km; 30-minute pre-incubation; read-out: kinase inhibition in terms of IC50, WEE1", "procedure": "(§1) The disclosed compounds were tested for activity against a panel of at least 300 kinases. Kinase panel screening was conducted by Nanosyn (Santa Clara, CA 95051) using an enzymatic inhibition assay accepted as valid by those skilled in the art (e.g., the Caliper LabChip® mobility shift assay, an ADP detection assay, or time-resolved fluorescence detection technology. Compounds were screened at a concentration of 5 μM using an ATP concentration at the Km for each of the respective kinases and a 30-minute pre-incubation time-point.\n(§2) In Table 1 and 2, kinase inhibition is classified by: A=95% or greater, B=90%-94%, C=80%-89%, and D=79% and less with a compound concentration of 5 JIM. In Table 3 and 4, kinase inhibition is reported in terms of IC50 values corresponding to A=less than 500 nm, B=500 nm to less than 1 μM, C=1 μM to less than 10 μM, and D=10 μM or greater using a compound concentration of 5 μM."}, "SYK": {"molecular_target": "T2, SYK (Homo sapiens, UniProt P43405)", "T2 construct": "purchased Nanosyn", "conditions": "ATP at Km; 30-minute pre-incubation; read-out: kinase inhibition in terms of IC50, SYK", "procedure": "as §1, §2"}, "PAK1": {"molecular_target": "T3, PAK1 (Homo sapiens, UniProt Q13153)", "T3 construct": "Nanosyn (contract laboratory that ran the panel)", "T3 sequence (Q13153 whole entry)": "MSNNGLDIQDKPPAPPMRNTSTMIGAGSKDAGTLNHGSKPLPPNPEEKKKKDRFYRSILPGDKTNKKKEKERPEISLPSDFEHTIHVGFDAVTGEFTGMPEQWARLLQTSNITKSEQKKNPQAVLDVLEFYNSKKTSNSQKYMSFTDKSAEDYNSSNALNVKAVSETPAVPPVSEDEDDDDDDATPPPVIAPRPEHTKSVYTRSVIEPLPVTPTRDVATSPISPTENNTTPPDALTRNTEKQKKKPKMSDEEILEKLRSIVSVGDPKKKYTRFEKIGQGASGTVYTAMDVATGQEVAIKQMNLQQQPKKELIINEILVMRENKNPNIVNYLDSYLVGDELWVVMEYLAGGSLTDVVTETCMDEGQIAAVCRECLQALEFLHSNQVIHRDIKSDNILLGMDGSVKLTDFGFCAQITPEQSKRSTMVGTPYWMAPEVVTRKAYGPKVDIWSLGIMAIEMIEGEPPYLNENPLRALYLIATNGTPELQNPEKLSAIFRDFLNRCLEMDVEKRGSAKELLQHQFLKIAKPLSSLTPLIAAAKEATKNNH", "conditions": "ATP at Km; 30-minute pre-incubation; read-out: kinase inhibition in terms of IC50, PAK1", "procedure": "as §1, §2"}, "TYRO3": {"molecular_target": "T4, TYRO3 (Homo sapiens, UniProt Q06418)", "T4 construct": "purchased Nanosyn", "T4 sequence (Q06418 41-890)": "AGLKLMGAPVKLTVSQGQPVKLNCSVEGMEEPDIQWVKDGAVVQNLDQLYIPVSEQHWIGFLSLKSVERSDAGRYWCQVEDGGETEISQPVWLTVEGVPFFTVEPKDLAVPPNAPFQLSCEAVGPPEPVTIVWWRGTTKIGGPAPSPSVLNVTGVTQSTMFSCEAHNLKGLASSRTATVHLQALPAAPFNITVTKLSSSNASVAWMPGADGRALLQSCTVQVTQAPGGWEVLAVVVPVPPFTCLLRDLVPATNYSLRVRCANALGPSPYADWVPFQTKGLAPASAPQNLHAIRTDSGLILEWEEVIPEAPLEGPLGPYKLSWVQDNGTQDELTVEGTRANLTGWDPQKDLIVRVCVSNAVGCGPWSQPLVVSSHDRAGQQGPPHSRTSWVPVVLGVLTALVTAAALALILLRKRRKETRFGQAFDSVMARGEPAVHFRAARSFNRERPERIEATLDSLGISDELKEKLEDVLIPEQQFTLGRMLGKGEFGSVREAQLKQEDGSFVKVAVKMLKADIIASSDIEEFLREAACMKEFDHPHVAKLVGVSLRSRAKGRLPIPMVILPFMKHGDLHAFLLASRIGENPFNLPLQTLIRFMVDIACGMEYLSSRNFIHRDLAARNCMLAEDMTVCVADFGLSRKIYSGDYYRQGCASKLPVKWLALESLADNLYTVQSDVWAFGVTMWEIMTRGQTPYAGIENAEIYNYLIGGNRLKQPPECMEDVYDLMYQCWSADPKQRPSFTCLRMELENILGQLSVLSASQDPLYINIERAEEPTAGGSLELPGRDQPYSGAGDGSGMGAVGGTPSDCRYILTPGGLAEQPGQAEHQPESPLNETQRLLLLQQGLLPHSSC", "conditions": "ATP at Km; 30-minute pre-incubation; read-out: kinase inhibition in terms of IC50, TYRO3", "procedure": "as §1, §2"}, "RIPK1": {"molecular_target": "T5, RIPK1 (Homo sapiens, UniProt Q13546)", "T5 construct": "purchased Nanosyn", "T5 sequence (Q13546 1-671)": "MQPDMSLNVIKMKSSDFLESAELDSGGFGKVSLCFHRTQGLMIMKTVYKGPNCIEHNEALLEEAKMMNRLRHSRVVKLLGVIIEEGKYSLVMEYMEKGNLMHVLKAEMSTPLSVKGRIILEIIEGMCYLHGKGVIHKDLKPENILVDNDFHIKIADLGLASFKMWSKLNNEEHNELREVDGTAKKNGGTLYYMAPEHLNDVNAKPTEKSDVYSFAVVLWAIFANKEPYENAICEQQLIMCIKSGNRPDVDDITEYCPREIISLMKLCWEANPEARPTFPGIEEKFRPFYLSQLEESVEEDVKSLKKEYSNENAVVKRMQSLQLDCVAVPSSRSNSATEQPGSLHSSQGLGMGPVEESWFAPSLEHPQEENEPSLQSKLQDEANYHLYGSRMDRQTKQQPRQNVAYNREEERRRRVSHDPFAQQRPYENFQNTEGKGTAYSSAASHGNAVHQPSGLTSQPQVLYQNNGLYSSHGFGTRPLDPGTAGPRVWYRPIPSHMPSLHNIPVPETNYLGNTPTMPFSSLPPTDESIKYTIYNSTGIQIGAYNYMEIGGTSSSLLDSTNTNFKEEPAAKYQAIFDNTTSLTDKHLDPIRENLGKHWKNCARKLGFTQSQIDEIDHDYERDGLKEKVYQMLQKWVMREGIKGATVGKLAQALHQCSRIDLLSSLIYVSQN", "conditions": "ATP at Km; 30-minute pre-incubation; read-out: kinase inhibition in terms of IC50, RIPK1", "procedure": "as §1, §2"}, "RIPK2": {"molecular_target": "T6, RIPK2 (Homo sapiens, UniProt O43353)", "T6 construct": "purchased Nanosyn", "T6 sequence (O43353 whole entry)": "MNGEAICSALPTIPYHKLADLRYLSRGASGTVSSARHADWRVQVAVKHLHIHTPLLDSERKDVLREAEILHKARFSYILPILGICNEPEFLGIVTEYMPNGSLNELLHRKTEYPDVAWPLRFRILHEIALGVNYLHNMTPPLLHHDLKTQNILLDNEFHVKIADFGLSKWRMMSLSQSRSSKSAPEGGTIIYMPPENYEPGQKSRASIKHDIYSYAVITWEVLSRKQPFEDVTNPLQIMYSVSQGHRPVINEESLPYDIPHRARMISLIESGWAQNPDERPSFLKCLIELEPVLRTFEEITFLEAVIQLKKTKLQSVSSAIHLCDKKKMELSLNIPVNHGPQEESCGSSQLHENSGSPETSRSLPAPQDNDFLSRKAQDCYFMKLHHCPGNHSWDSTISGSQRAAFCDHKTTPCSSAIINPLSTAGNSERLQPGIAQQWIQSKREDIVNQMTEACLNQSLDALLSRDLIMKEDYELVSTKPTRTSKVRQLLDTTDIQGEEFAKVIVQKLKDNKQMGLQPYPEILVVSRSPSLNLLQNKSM", "conditions": "ATP at Km; 30-minute pre-incubation; read-out: kinase inhibition in terms of IC50, RIPK2", "procedure": "as §1, §2"}, "TAK1-TAB1": {"molecular_target": "T7, TAK1-TAB1 (Homo sapiens, UniProt O43318)", "T7 construct": "purchased Nanosyn", "T7 sequence (O43318 with tags, fused parts or gaps limits assumed)": "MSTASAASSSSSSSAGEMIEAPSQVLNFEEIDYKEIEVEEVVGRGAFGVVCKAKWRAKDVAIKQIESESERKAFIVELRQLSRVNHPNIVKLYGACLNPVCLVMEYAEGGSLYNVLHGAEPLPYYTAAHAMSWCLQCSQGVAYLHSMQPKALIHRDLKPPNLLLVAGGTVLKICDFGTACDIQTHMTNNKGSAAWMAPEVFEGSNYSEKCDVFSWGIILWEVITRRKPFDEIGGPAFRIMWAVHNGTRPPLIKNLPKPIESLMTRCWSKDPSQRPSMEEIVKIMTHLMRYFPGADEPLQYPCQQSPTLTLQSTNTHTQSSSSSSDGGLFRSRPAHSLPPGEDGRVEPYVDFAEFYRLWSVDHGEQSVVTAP", "conditions": "ATP at Km; 30-minute pre-incubation; read-out: kinase inhibition in terms of IC50, TAK1-TAB1", "procedure": "as §1, §2"}, "PLK4": {"molecular_target": "T8, PLK4 (Homo sapiens, UniProt O00444)", "T8 construct": "Nanosyn (contract laboratory that ran the panel)", "T8 sequence (O00444 1-970)": "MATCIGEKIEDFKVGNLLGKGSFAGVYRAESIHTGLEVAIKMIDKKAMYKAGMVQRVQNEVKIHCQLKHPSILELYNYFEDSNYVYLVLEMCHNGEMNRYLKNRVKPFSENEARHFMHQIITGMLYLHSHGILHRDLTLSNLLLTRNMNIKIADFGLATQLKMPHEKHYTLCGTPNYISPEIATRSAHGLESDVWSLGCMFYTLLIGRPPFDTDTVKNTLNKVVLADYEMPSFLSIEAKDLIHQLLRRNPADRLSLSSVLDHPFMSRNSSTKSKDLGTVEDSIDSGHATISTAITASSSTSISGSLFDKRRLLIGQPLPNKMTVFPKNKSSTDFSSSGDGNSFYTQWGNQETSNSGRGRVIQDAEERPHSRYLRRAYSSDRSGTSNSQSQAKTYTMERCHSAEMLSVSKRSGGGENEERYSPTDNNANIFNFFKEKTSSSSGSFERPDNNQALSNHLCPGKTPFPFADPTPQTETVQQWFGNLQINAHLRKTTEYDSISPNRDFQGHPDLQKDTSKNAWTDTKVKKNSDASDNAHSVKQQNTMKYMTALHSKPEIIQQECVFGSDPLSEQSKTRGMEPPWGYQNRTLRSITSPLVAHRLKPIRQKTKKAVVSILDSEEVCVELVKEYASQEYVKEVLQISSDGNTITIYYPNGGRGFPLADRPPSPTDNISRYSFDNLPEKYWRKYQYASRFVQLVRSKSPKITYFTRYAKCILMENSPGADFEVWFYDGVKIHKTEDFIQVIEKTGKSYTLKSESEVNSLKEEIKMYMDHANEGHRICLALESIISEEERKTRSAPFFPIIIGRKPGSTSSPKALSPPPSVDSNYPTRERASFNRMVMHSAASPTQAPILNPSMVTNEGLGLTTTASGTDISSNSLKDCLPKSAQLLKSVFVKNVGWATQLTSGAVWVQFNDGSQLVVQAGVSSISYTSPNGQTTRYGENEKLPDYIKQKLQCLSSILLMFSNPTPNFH", "conditions": "ATP at Km; 30-minute pre-incubation; read-out: kinase inhibition in terms of IC50, PLK4", "procedure": "as §1, §2"}}, "data": [{"smiles": "CNc1ncc2c(C)c(-c3cc(NC(=O)c4ccn(-c5ccc(F)cc5)n4)ccc3Cl)c(=O)n(C)c2n1", "note": "[Ex69, N-(4-chloro-3-(5,8-dimethyl-2-(methylamino)-7-oxo-7,8-dihydropyrido[2,3-d]pyrimidin-6-yl)phenyl)-1-(4-fluorophenyl)-1H-pyrazole-3-carboxamide]", "values": [{"measurement": "IC50", "setting": "WEE1", "result": "≥ 10", "unit": "µM"}]}, {"smiles": "CS(=O)(=O)c1cc(C(=O)Nc2cc(Br)c(F)c(C(=O)c3c[nH]c4ncc(Cl)cc34)c2F)nn1-c1ccc(F)cc1", "note": "[Ex70, N-(5-bromo-3-(5-chloro-1H-pyrrolo[2,3-b]pyridine-3-carbonyl)-2,4-difluorophenyl)-1-(4-fluorophenyl)-5-(methylsulfonyl)-1H-pyrazole-3-carboxamide]", "values": [{"measurement": "IC50", "setting": "WEE1", "result": "≥ 10", "unit": "µM"}]}, {"smiles": "CNc1ncc2cc(-c3cc(NC(=O)c4ccn(-c5ccc(F)cc5)n4)ccc3C)c(=O)n(C)c2n1", "note": "[Ex74, 1-(4-fluorophenyl)-N-(4-methyl-3-(8-methyl-2-(methylamino)-7-oxo-7,8-dihydropyrido[2,3-d]pyrimidin-6-yl)phenyl)-1H-pyrazole-3-carboxamide]", "values": [{"measurement": "IC50", "setting": "SYK", "result": "1 to 10", "unit": "µM"}, {"measurement": "IC50", "setting": "WEE1", "result": "≥ 10", "unit": "µM"}, {"measurement": "IC50", "setting": "PAK1", "result": "≥ 10", "unit": "µM"}]}, {"smiles": "COc1cc2nccc(Oc3ccc(NC(=O)c4cc(SC)n(-c5ccc(F)cc5)n4)c(F)c3)c2cc1OC", "note": "[Ex77, N-(4-((6,7-dimethoxyquinolin-4-yl)oxy)-2-fluorophenyl)-1-(4-fluorophenyl)-5-(methylthio)-1H-pyrazole-3-carboxamide]", "values": [{"measurement": "IC50", "setting": "TYRO3", "result": "< 0.5", "unit": "µM"}, {"measurement": "IC50", "setting": "SYK", "result": "≥ 10", "unit": "µM"}]}, {"smiles": "COc1cc2nccc(Oc3ccc(NC(=O)c4ccn(-c5ccc(F)cc5)n4)c(F)c3)c2cc1OC", "note": "[Ex78, N-(4-((6,7-dimethoxyquinolin-4-yl)oxy)-2-fluorophenyl)-1-(4-fluorophenyl)-1H-pyrazole-3-carboxamide]", "values": [{"measurement": "IC50", "setting": "TYRO3", "result": "< 0.5", "unit": "µM"}, {"measurement": "IC50", "setting": "SYK", "result": "1 to 10", "unit": "µM"}]}, {"smiles": "Cc1ccc(NC(=O)c2ccn(-c3ccc(F)cc3)n2)cc1C#Cc1cnc2cccnn12", "note": "[Ex79, 1-(4-fluorophenyl)-N-(3-(imidazo[1,2-b]pyridazin-3-ylethynyl)-4-methylphenyl)-1H-pyrazole-3-carboxamide]", "values": [{"measurement": "IC50", "setting": "RIPK1", "result": "< 0.5", "unit": "µM"}, {"measurement": "IC50", "setting": "RIPK2", "result": "< 0.5", "unit": "µM"}]}, {"smiles": "Cn1cnc2ccc(Oc3ccc(F)c(NC(=O)c4ccn(-c5ccc(F)cc5)n4)c3)cc2c1=O", "note": "[Ex80, N-(2-fluoro-5-((3-methyl-4-oxo-3,4-dihydroquinazolin-6-yl)oxy)phenyl)-1-(4-fluorophenyl)-1H-pyrazole-3-carboxamide]", "values": [{"measurement": "IC50", "setting": "RIPK1", "result": "≥ 10", "unit": "µM"}, {"measurement": "IC50", "setting": "RIPK2", "result": "≥ 10", "unit": "µM"}]}, {"smiles": "Nc1ncnc2scc(C#Cc3cccc(NC(=O)c4ccn(-c5ccc(F)cc5)n4)c3)c12", "note": "[Ex81, N-(3-((4-aminothieno[2,3-d]pyrimidin-5-yl)ethynyl)phenyl)-1-(4-fluorophenyl)-1H-pyrazole-3-carboxamide]", "values": [{"measurement": "IC50", "setting": "SYK", "result": "1 to 10", "unit": "µM"}]}, {"smiles": "CNc1ncc2cc(-c3c(Cl)ccc(NC(=O)c4ccn(-c5ccc(F)cc5)n4)c3Cl)c(=O)n(C)c2n1", "note": "[Ex82, N-(2,4-dichloro-3-(8-methyl-2-(methylamino)-7-oxo-7,8-dihydropyrido[2,3-d]pyrimidin-6-yl)phenyl)-1-(4-fluorophenyl)-1H-pyrazole-3-carboxamide]", "values": [{"measurement": "IC50", "setting": "WEE1", "result": "≥ 10", "unit": "µM"}]}, {"smiles": "Cc1ccc(NC(=O)c2ccn(-c3ccc(F)cc3)n2)cc1Oc1ccnc2[nH]ccc12", "note": "[Ex83, N-(3-((1H-pyrrolo[2,3-b]pyridin-4-yl)oxy)-4-methylphenyl)-1-(4-fluorophenyl)-1H-pyrazole-3-carboxamide]", "values": [{"measurement": "IC50", "setting": "TAK1-TAB1", "result": "≥ 10", "unit": "µM"}]}, {"smiles": "O=C(Nc1cccc(NC(=O)c2ccn(-c3ccc(F)cc3)n2)c1)c1cccc(-c2ccn[nH]2)n1", "note": "[Ex84, N-(3-(1-(4-fluorophenyl)-1H-pyrazole-3-carboxamido)phenyl)-6-(1H-pyrazol-5-yl)picolinamide]", "values": [{"measurement": "IC50", "setting": "PLK4", "result": "≥ 10", "unit": "µM"}]}, {"smiles": "CC(=O)Nc1nc(C)c(-c2ccnc(Nc3cc(NC(=O)c4ccn(-c5ccc(F)cc5)n4)ccc3C)n2)s1", "note": "[Ex86, N-(3-((4-(2-acetamido-4-methylthiazol-5-yl)pyrimidin-2-yl)amino)-4-methylphenyl)-1-(4-fluorophenyl)-1H-pyrazole-3-carboxamide]", "values": [{"measurement": "IC50", "setting": "PLK4", "result": "< 0.5", "unit": "µM"}]}]}
